Experimental data from publication PMC9585585, “Discovery of Small-Molecule Allosteric Inhibitors of PfATC as Antimalarials” (Journal of the American Chemical Society, 2022).
Where two headings read alike, the source gives them in different places.

How the values were obtained:
HsATC = molecular target: T1, HsATC (Homo sapiens, UniProt P27708); test: HsATC activity assay; format: biochemical; details: in vitro activity assay, 10 mM L-aspartate, 5 mM carbamoyl phosphate; read-out: HsATC IC50
T1 construct: ATCase domain of CAD; made in house; host or cells: E. coli BL21 star
T1 sequence (P27708 1918-2225 limits assumed): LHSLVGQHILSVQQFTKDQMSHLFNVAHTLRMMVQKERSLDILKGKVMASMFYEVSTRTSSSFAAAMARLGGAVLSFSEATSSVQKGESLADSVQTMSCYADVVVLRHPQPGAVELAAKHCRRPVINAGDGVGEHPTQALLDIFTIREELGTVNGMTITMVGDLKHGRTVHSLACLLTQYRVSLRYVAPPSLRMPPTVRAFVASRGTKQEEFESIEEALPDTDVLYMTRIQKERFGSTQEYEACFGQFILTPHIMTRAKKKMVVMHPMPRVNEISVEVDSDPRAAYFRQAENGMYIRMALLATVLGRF
Experimental: 417100μL of stop mix (two volumes of Antipyrine (26.5 mM 2,3-Dimethyl-1-phenyl-3-pyrazolin-5-
418one in 50% (v/v) sulfuric acid) and one volume of 2,3-Butanedione monoxime (80 mM 2,3-
419Butanedione monoxime in 5% (v/v) acetic acid). After plates were sealed with transparent sealing
(§1) 420tape to prevent evaporation and incubated overnight in the dark place at room temperature. After
421incubation, the plates were heated at 95 °C for 15 min in dark place, and kept for 30 min before
422measuring at 466 nm suing a Synergy H1 Hybrid Reader (BioTek). Analyses were performed using
423Microsoft Excel and Graph Pad Prism.
424HsATC activity assay. The enzymatic assay was performed as described herein above for
425enzymatic assay of PfATC with minor modifications. Briefly, the reaction was carried out at room
426temperature in a total volume of 150 μl of 10 mM L-aspartate and 5 mM carbamoyl phosphate
427saturated substrate solution in 50 mM Tris-Acetate buffer pH 8.3. hsATC was pre-incubated with
428inhibitor and L-Asp for 10 min at room temperature on a shaker. The reaction was initiated by
429adding CP and stopped after 5 min with […] color mix. Then the plate was covered by sealing
(§2) 430tape and kept in dark place at room temperature and then heated to 95 °C for 15min in dark and kept
431the plate in the dark for another 30 min before measuring the absorbance at 466 nm suing a Synergy
432H1 Hybrid Reader (BioTek). […]

PfATC = PfATC (Plasmodium falciparum, UniProt A0A5K1K910); test: biochemical
Experimental: Following washing with Lysis buffer
Excess imidazole was removed and the His-tag was cleaved
400Then, the sample was loaded onto a 5 ml HiTrap SP HP column (GE Healthcare, USA) and
410PfATC activity assay. Enzymatic reactions were performed in a total volume of 150 µL in 50 mM
Small-molecule dose-response curves were
The reactions were initiated by adding CP and quenched after 10 min with
After plates were sealed with transparent sealing
as §1
Analyses were performed using
The enzymatic assay was performed as described herein above for
Briefly, the reaction was carried out at room
The reaction was initiated by
Then the plate was covered by sealing
as §2

[1] = in vitro activity assay, PfATC 50 nM, 2 mM CP, 1 mM aspartate, read-out: PfATC IC50
[2] = in vitro enzyme assay, PfATC 50 nM, n = 3, read-out: IC50 against PfATC

Sequence of PfATC (A0A5K1K910 entry or part of it): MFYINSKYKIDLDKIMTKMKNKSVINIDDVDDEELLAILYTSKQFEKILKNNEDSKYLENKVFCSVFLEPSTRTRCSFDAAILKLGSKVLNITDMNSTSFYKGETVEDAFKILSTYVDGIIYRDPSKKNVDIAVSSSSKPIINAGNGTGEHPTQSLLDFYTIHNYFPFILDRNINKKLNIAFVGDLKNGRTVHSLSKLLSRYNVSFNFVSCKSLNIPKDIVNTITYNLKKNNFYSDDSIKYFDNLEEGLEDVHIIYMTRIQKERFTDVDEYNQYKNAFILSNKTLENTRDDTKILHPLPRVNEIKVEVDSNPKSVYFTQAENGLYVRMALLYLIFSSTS

Row | SMILES | IC50 (HsATC) [µM] | IC50 (PfATC; [1]) [µM] | IC50 (PfATC; [2]) [µM] | IC50 (PfATC) [µM]
1 | CC(C)(C)OC(=O)Nc1sc2c(c1C(=O)NCCc1ccc(O)cc1)CCCC2 [BDA-43] | 2.09 | 18.4 |  | 
2 | CC(C)(C)OC(=O)NCC(=O)Nc1sc(-c2ccccc2)cc1C(=O)NCCc1ccc(O)cc1 [BDA-17] | 0.308 | 1.15 |  | 
3 | C#CCNC(=O)c1cc(-c2ccccc2)sc1N [compound 2] |  |  | 4.91 | 
4 | Nc1sc(-c2ccccc2)cc1C(=O)NCCc1ccc(O)cc1 [BDA-50] | 0.36 | 1.14 |  | 
5 | CC(C)(C)OC(=O)Nc1sc(-c2ccc(Cl)c(Cl)c2)cc1C(=O)NCCc1ccc(O)cc1 [BDA-56] | 0.556 | 2.22 |  | 
6 | CC(C)CCNc1sc(-c2ccccc2)cc1C(=O)NCCc1ccccc1 [BDA-12] | 0.655 | 0.159 |  | 
7 | Nc1sc(-c2ccccc2)cc1C(=O)NCCc1ccc(F)cc1 [BDA-46] | 0.741 | 1.64 |  | 
8 | COC(=O)c1c(NC(=O)OC(C)(C)C)sc2c1CCC(c1ccccc1)C2 (stereo not drawn) [BDA-65] | 5.17 | 6.42 |  | 
9 | CC(C)(C)OC(=O)Nc1sc(-c2ccccc2)cc1C(=O)NCCc1ccc(F)cc1 [BDA-28] | 0.391 | 1.63 |  | 
10 | CC(C)(C)OC(=O)Nc1sc(-c2ccccc2)cc1C(=O)NCc1ccccc1 [BDA-34] | 0.212 | 0.849 |  | 
11 | CCCCNC(=O)c1cc(-c2ccccc2)sc1N [compound 4] |  |  | 3.32 | 
12 | CC(C)(C)OC(=O)Nc1sc(-c2ccccc2)cc1C(=O)NCc1ccc(O)cc1 [BDA-30] | 0.397 | 2.62 |  | 
13 | COc1ccc(CCNC(=O)c2cc(-c3ccccc3)sc2NC(=O)OC(C)(C)C)cc1 [BDA-29] | 0.585 | 1.62 |  | 
14 | Cc1ccc(CCNC(=O)c2cc(-c3ccccc3)sc2NC(=O)OC(C)(C)C)cc1 [BDA-23] | 0.756 | 0.409 |  | 
15 | COC(=O)c1cc(-c2ccccc2)sc1NC(=O)OC(C)(C)C [BDA-02] | 1.5 | 1.47 |  | 
16 | CC(C)(C)OC(=O)Nc1sc(-c2cnc(N)nc2)cc1C(=O)NCCc1ccc(O)cc1 [BDA-35] | 0.234 | 2.08 |  | 
17 | N#CC1(C(=O)Nc2sc(-c3ccccc3)cc2C(=O)NCCc2ccc(O)cc2)CC1 [BDA-70] | 0.556 | 0.876 |  | 
18 | C=CCNC(=O)c1cc(-c2ccccc2)sc1N [compound 3] |  |  | 4.61 | 
19 | CC(C)(C)OC(=O)Nc1sc(-c2cccc(C=O)c2)cc1C(=O)NCCc1ccc(O)cc1 [BDA-48] | 0.125 | 1.67 |  | 
20 | Cc1ccc(-c2cc(C(=O)NCCc3ccc(O)cc3)c(NC(=O)OC(C)(C)C)s2)cc1 [BDA-52] | 0.119 | 0.558 |  | 

Row | SMILES | IC50 (HsATC) [µM] | IC50 (PfATC; [1]) [µM] | IC50 (PfATC; [2]) [µM] | IC50 (PfATC) [µM]
21 | CC(C)(C)OC(=O)Nc1sc(-c2cccc(C#N)c2)cc1C(=O)NCCc1ccc(O)cc1 [BDA-53] | 0.383 | 2.72 |  | 
22 | CC(C)(C)OC(=O)Nc1sc(-c2ccccc2)cc1C(=O)NC1CCN(Cc2ccccc2)CC1 [BDA-38] | 0.185 | 0.805 |  | 
23 | CC(C)(C)OC(=O)Nc1sc(Cc2ccccc2)cc1C(=O)NCCc1ccc(O)cc1 [BDA-59] | 2.59 | 3.11 |  | 
24 | CC(C)(C)OC(=O)Nc1sc(-c2ccccc2)cc1C(=O)N1CCN(c2ccc(F)cc2)CC1 [BDA-10] | 0.298 | 5.08 |  | 
25 | COC(=O)c1cc(-c2ccccc2)sc1N [BDA-01] | 1.54 | 1.27 |  | 
26 | CC(C)(C)OC(=O)Nc1sc(-c2ccccc2)cc1C(=O)NCCc1ccc(S(N)(=O)=O)cc1 [BDA-06] | 0.287 | 1.87 |  | 
27 | COC(=O)c1cc(-c2ccc3c(c2)OCCO3)sc1NC(=O)OC(C)(C)C [BDA-69] | 1.03 | 1.05 |  | 
28 | CC(C)(C)OC(=O)Nc1sc(-c2ccc3c(c2)OCCO3)cc1C(=O)NCCc1ccc(O)cc1 [BDA-33] | 0.101 | 0.516 |  | 
29 | O=C(Cc1c[nH]c2ccccc12)Nc1sc(-c2ccccc2)cc1C(=O)NCCc1ccccc1 [BDA-08] |  | 14.7 |  | 
30 | COC(=O)c1c(N)sc2c1CCC(c1ccccc1)C2 (stereo not drawn) [BDA-66] | 0.764 | 1.29 |  | 
31 | CC(C)(C)OC(=O)Nc1sc(-c2ccccc2)cc1C(=O)NCCCc1ccccc1 [BDA-26] | 0.555 | 0.576 |  | 
32 | CC(C)(C)OC(=O)Nc1sc(-c2ccccc2)cc1C(=O)NCCN1CCOCC1 [BDA-57] | 0.381 | 0.8 |  | 
33 | COC(=O)c1c(N)sc2c1CCN(Cc1ccccc1)C2 [BDA-68] | 58.3 |  |  | 
34 | CC(C)(C)OC(=O)Nc1sc(-c2cccc(N3CCOCC3)c2)cc1C(=O)NCCc1ccc(O)cc1 [BDA-47] | 0.238 | 1.53 |  | 
35 | O=C(NCCc1ccccc1)c1cc(-c2ccccc2)sc1NCc1ncc[nH]1 [BDA-13] | 0.268 | 0.639 |  | 
36 | CC(C)(C)OC(=O)Nc1sc(-c2ccccc2)cc1C(=O)NCCC1=CCCCC1 [BDA-20] | 2 | 6.31 |  | 
37 | CC(C)(C)OC(=O)Nc1sc(-c2ccccc2)cc1C(=O)Nc1ccc(N2CCOCC2)c(F)c1 [BDA-37] | 0.349 | 1.08 |  | 
38 | CC(C)(C)OC(=O)Nc1oc(-c2ccc(Cl)cc2)cc1C(=O)NCCc1ccc(O)cc1 [BDA-44] | 0.83 | 6.11 |  | 
39 | Cc1c(-c2ccccc2)sc(NC(=O)OC(C)(C)C)c1C(=O)NCCc1ccc(O)cc1 [BDA-49] | 0.729 | 5.94 |  | 
40 | CC(C)(C)OC(=O)Nc1sc(-c2ccc3c(c2)OCO3)cc1C(=O)NCCc1ccc(O)cc1 [BDA-41] | 0.0289 | 0.673 |  | 

Row | SMILES | IC50 (HsATC) [µM] | IC50 (PfATC; [1]) [µM] | IC50 (PfATC; [2]) [µM] | IC50 (PfATC) [µM]
41 | CC(C)(C)OC(=O)Nc1sc(-c2ccccc2)cc1C(=O)O [BDA-03] | 1.63 | 1 |  | 
42 | CC(C)(C)OC(=O)Nc1sc(-c2ccccc2)c(-c2ccccc2)c1C(=O)NCCc1ccc(O)cc1 [BDA-60] | 1.05 | 2.01 |  | 
43 | Nc1sc(-c2ccccc2)cc1C(=O)NCCc1ccc(S(N)(=O)=O)cc1 [BDA-07] | 0.116 | 0.997 |  | 
44 | COCCNC(=O)c1cc(-c2ccccc2)sc1N [compound 1] |  |  |  | 1.59
45 | CC(C)(C)OC(=O)Nc1sc(-c2ccccc2)cc1C(=O)NCCc1ccc(O)c(O)c1 [BDA-25] | 0.403 | 0.181 |  | 
46 | CC(C)(C)OC(=O)Nc1sc2c(c1C(=O)NCCc1ccc(O)cc1)CCN(Cc1ccccc1)C2 [BDA-36] | 3.84 |  |  | 
47 | CC(C)(C)OC(=O)NCC1CCN(C(=O)c2cc(-c3ccccc3)sc2NC(=O)OC(C)(C)C)CC1 [BDA-09] | 0.196 | 0.241 |  | 
48 | COC(=O)c1c(NC(=O)OC(C)(C)C)sc2c1CCN(Cc1ccccc1)C2 [BDA-64] | 704 | 86.9 |  | 
49 | CC(C)(C)OC(=O)Nc1sc(-c2ccc(C=O)cc2)cc1C(=O)NCCc1ccc(O)cc1 [BDA-45] | 0.124 | 3.77 |  | 
50 | CC(C)(C)OC(=O)Nc1sc2c(c1C(=O)NCCc1ccc(O)cc1)CCC(c1ccccc1)C2 (stereo not drawn) [BDA-42] | 2.42 | 12.2 |  | 
51 | CC(C)(C)OC(=O)Nc1sc(-c2ccccc2)cc1C(=O)NCC(c1ccccc1)c1ccccc1 [BDA-39] | 15.4 | 5.65 |  | 
52 | CC(C)(C)OC(=O)Nc1sc(Br)cc1C(=O)NCCc1ccc(O)cc1 [BDA-32] | 0.641 | 2.76 |  | 
53 | Nc1sc(-c2ccccc2)cc1C(=O)NCCc1ccccc1 [BDA-05] | 0.765 | 1.27 |  | 
54 | CC(C)(C)OC(=O)Nc1sc(-c2ccccc2)cc1C(=O)Nc1ccccc1 [BDA-31] | 0.332 | 1.05 |  | 
55 | CC(C)(C)OC(=O)Nc1sc(-c2cncc(Cl)c2)cc1C(=O)NCCc1ccc(O)cc1 [BDA-40] | 11.4 |  |  | 
56 | CC(C)c1cc(C(=O)NCCc2ccc(O)cc2)c(NC(=O)OC(C)(C)C)s1 [BDA-62] | 1.12 | 2.2 |  | 
57 | CC(C)(C)OC(=O)Nc1sc(-c2ccccc2)cc1C(=O)NCC(=O)c1ccccc1 [BDA-27] | 0.369 | 1.23 |  | 
58 | CC(C)(C)OC(=O)Nc1sc(-c2cccc(N)c2)cc1C(=O)NCCc1ccc(O)cc1 [BDA-51] | 0.226 | 1.24 |  | 
59 | CCCNC(=O)c1cc(-c2ccccc2)sc1N [compound 5] |  |  | 5.69 | 
60 | CC(C)(C)OC(=O)Nc1sc(-c2ccc(F)cc2)cc1C(=O)NCCc1ccc(O)cc1 [BDA-54] | 0.158 | 0.845 |  | 
